As usually defined, the IC50 is the point on the concentration scale where inhibition reaches its midpoint.

The target in this assay is T1, PARP1 (Homo sapiens, UniProt P09874).
T1 construct: purchased BPS 80501
T1 sequence (P09874 whole entry): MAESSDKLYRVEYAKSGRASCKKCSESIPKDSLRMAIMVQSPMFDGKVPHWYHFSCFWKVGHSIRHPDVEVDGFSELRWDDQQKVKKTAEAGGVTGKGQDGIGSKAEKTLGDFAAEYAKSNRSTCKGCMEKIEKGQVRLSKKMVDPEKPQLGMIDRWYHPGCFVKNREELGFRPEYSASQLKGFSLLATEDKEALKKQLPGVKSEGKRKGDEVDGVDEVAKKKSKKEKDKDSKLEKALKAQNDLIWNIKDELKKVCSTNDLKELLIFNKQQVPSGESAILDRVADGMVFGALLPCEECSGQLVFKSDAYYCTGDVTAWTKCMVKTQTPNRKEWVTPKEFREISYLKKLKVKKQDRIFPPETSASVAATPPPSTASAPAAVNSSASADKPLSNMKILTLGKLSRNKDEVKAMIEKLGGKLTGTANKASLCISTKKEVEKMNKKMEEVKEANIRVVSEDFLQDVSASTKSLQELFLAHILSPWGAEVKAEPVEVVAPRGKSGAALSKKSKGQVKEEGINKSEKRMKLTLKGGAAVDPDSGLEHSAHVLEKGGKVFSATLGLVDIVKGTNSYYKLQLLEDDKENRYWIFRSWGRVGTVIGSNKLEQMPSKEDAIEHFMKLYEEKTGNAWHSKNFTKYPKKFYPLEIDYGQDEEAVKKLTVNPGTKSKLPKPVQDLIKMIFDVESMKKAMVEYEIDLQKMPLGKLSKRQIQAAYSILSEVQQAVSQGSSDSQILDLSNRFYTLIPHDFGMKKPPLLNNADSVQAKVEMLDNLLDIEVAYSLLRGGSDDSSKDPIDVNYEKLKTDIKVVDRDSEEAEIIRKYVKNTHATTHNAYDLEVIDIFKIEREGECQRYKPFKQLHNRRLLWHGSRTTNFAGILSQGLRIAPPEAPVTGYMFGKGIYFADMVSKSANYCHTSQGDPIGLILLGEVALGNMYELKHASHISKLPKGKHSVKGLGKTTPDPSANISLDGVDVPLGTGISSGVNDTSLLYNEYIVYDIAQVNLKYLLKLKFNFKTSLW
In words: PARP1 enzyme assay (histone-coated plate, chemiluminescence). The assay is classed as biochemical. The settings on record: PARP1 0.02 nM, DNA 0.8 nM, NAD+ 3.5 µM; read-out: PARP-1 IC50. How it is done:
1.1.1. Buffer preparation: PBST: 1× PBS, 0.05% Tween-20; blocking buffer: 1× PBS, 0.05% Tween-20, 5% BSA; reaction buffer: 50 mM Tris-HCl (pH 7.5), 0.005% Tween-20, 0.01% BSA.
1.1.2. Coating: A 50 ng/mL Histone coating solution was prepared with 1× PBS and then transferred to a 384-well reaction plate at 25 µL/well. The plate was coated at 4 °C overnight.
1.1.3. Washing: After the coating was completed, the coating solution was discarded, and the plate was washed with the PBST solution. The method was as follows: PBST was transferred to the 384-well reaction plate at 50 µL/well, and the plate was left to stand for 5 min. The washing solution was then discarded, and the plate was refilled. The washing step was repeated 3 times. Finally, the reaction plate was patted dry and left for the next step of blocking.
1.1.4. Blocking: The blocking buffer was transferred to the 384-well reaction plate at 50 µL/well, and the plate was left to stand for 1 h.
Washing: After the blocking was completed, the blocking buffer was discarded, and the plate was washed 3 times with the PBST solution according to the method in step 2. Finally, the reaction plate was patted dry.
1.1.5. A 1000-fold solution of a compound was prepared and then transferred at 1 µL/well to a 96-well plate containing 199 µL of the reaction buffer. The mixture was well mixed, and then the well mixed compound solution was transferred to the 384-well reaction plate at 5 µL/well. 1.1.6. A 25/10-fold PARP1-DNA solution was prepared with the reaction buffer and then transferred to the 384-well reaction plate at 10 µL/well. For the negative control wells, 10 µL
of the DNA solution was transferred. The final concentrations of PARP1 and DNA were 0.02 nM and 0.8 nM, respectively.
1.1.9. Washing: After the reaction was completed, the reaction solution was discarded, and the plate was washed 3 times with the PBST solution according to the method in step 2. Finally, the reaction plate was patted dry.
1.1.10. A primary antibody (anti-Poly/Mono-ADP Ribose Rabbit mAb) was diluted 2000-fold with the blocking buffer and then added at 20 µL/well.
1.1.11. Washing: The primary antibody was discarded, and the plate was washed 3 times with the PBST solution according to the method in step 2. Finally, the reaction plate was patted dry.
1.1.12. A secondary antibody (anti-rabbit IgG, HRP-linked Antibody) was diluted 2000-fold with the blocking buffer and then added at 20 µL/well.
1.1.13. Washing: The secondary antibody was discarded, and the plate was washed 3 times with the PBST solution according to the method in step 2. Finally, the reaction plate was patted dry.
1.1.14. Color development: Femto-ECL Substrate A and Femto-ECL Substrate B were mixed at a ratio of 1:1, and the mixture was transferred to the 384-well reaction plate at 25 µL/well. 1.1.15. Reading: The chemiluminescence values (RLU) were measured using Envision.
On to `CNC(=O)c1ccc(N2CCN(C[C@@H]3Cc4[nH]c(=O)c(C)cc4CO3)CC2)c(Cl)n1` [Example 94, (S)-6-Chloro-N-methyl-5-(4-((3-methyl-2-oxo-1,5,7,8-tetrahydro-2H-pyrano[4,3-b]pyridin-7-yl)methyl)piperazin-1-yl)picolinamide], for which the half-maximal inhibitory concentration (IC50) was no more than 50 nM.
On to `CCc1nc2c([nH]c1=O)C[C@@H](CN1CCN3c4ccc(C(=O)NC)nc4COC[C@H]3C1)CC2` [Example 105], for which the 50% inhibitory concentration (IC50) is no more than 50 nM.
For `CCc1cc2c([nH]c1=O)CC(CN1CC=C(c3ccc(C(=O)NC4CC4)nc3F)CC1)OC2` (stereo not shown) [Compound 7, N-Cyclopropyl-1'-((3-ethyl-2-oxo-1,5,7,8-tetrahydro-2H -pyrano[4,3-b]pyridin-7-yl)methyl)-2-fluoro-1',2',3',6'-tetrahydro-[3,4'-bipyridine]-6-carboxamide], the IC50 was no more than 50 nM.
Regarding `CCc1cc2c([nH]c1=O)CC(CN1CCN(c3ccc(C(=O)NC4CC4)nc3F)CC1)CC2` (stereo not shown) [Compound 21, N-Cyclopropyl-5-(4-((3-ethyl-2-oxo-1,2,5,6,7,8-hexahydroquinoline-7-yl)methyl)piperazin-1-yl)-6-fluoropicoli namide], the IC50 was no more than 50 nM.
As to `CCc1cc2c([nH]c1=O)CC(CN1CC=C(c3ccc(C(=O)NC4CC4)nc3)CC1)OC2` (stereo not shown) [Compound 8, N-Cyclopropyl-1'-((3-ethyl-2-oxo-1,5,7,8-tetrahydro-2H -pyrano[4,3-b]pyridin-7-yl)methyl)-1',2',3',6'-tetrahydro-[3,4'-bipyridine]-6-carboxamide], the IC50 is no more than 50 nM.
The result for `CCc1cc2c([nH]c1=O)CC(CN1CCN(c3ccc(C(=O)NC)nc3F)CC1)CC2` (stereo not shown) [Compound 16, 5-(4-((3-Ethyl-2-oxo-1,2,5,6 ,7,8-hexahydroquinoline-7-yl)methyl)piperazin-1-yl)-6-fl uoro-N-methylpicolinamide] reads no more than 50 nM.
The value for `[2H]C([2H])([2H])NC(=O)c1ccc(N2CCN(CC3CCc4cc(CC)c(=O)[nH]c4C3)CC2)cn1` (stereo not shown) [Compound 18, 5-(4-((3-Ethyl-2-oxo-1,2,5,6 ,7,8-hexahydroquinoline-7-yl)methyl)piperazin-1-yl)-N-(methyl-d3)picolinamide] was no more than 50 nM; that for `CCc1cc2c([nH]c1=O)CC(CN1CC=C(c3ccc(C(=O)NC)nc3)CC1)CC2` (stereo not shown) [Compound 23, 1'-((3-Ethyl-2-oxo-1,2,5,6,7,8-hexahydroquinoline-7-yl)methyl)-N-methyl-1',2',3',6'-tetrahydro-[3,4'-bipyridine]-6-carboxamide] was no more than 50 nM; that for `CCc1cc2c([nH]c1=O)CC(CN1CC=C(c3ccc(C(=O)NC)nc3C)CC1)CC2` (stereo not shown) [Compound 25, 1'-((3-Ethyl-2-oxo-1,2,5,6,7,8-hexahydroquinoline-7-yl)methyl)-N,2-dimethyl-1',2',3 ',6'-tetrahydro-[3,4'-bipyridine]-6-carboxamide] was no more than 50 nM.
For `CCc1cc2c([nH]c1=O)CC(CN1CC=C(c3ccc(C(=O)NC4CC4)nc3)CC1)CC2` (stereo not shown) [Compound 28, N-Cyclopropyl-1'-((3-ethyl-2-oxo-1,2,5,6,7,8-hexahydroquinoline-7-yl)methyl)-1',2', 3',6'-tetrahydro-[3,4'-bipyridine]-6-carboxamide], the IC50 was no more than 50 nM.
For the compound `[2H]C([2H])([2H])NC(=O)c1ccc(C2=CCN(CC3CCc4cc(CC)c(=O)[nH]c4C3)CC2)cn1` (stereo not shown) [Compound 26, 1'-((3-Ethyl-2-oxo-1,2,5,6,7,8-hexahydroquinoline-7-yl)methyl)-N-(methyl-d3)-1',2', 3',6'-tetrahydro-[3,4'-bipyridine]-6-carboxamide], the IC50 is no more than 50 nM.
On to `CCc1cc2c([nH]c1=O)CC(CN1CCN(c3ccc(C(=O)NC)nc3F)C[C@@H]1C)OC2` (stereo partly drawn) [Example 72, 5-((3S)-4-((3-Ethyl-2-oxo-1,5,7,8-tetrahydro-2H-pyrano[4,3-b]pyridin-7-yl)methyl)-3-methylpiperazin-1-yl)-6-fluoro-N-methylpicolinamide], for which the IC50 lay in the range of 50 to 500 nM.
The result for `CCc1cc2c([nH]c1=O)CC(CN1CC=C(c3ccc(C(=O)NC4CC4)nc3F)CC1)CC2` (stereo not shown) [Compound 29, N-Cyclopropyl-1'-((3-ethyl-2-oxo-1,2,5,6,7,8-hexahydroquinoline-7-yl)methyl)-2-flu oro-1',2',3',6'-tetrahydro-[3,4 '-bipyridine]-6-carboxamide] reads no more than 50 nM.
The value for `CCc1cc2c([nH]c1=O)CC(CN1CCN(c3ccc(C(=O)NC)nc3F)C[C@H]1C)OC2` (stereo partly drawn) [Example 75, 5-((3R)-4-((3-Ethyl-2-oxo-1,5,7,8-tetrahydro-2H-pyrano[4,3-b]pyridin-7-yl)methyl)-3-methylpiperazin-1-yl)-6-fluoro-N-methylpicolinamide] was 50 to 500 nM; that for `CCc1cc2c([nH]c1=O)CC(CN1CCN(c3ccc(C(=O)NC)nc3C)CC1)CC2` (stereo not shown) [Compound 17, 5-(4-((3-Ethyl-2-oxo-1,2,5,6 ,7,8-hexahydroquinoline-7-yl)methyl)piperazin-1-yl)-N,6-dimethylpicolinamide] was no more than 50 nM.
With `CCc1cc2c([nH]c1=O)CC(CN1CC=C(c3ccc(C(=O)NCC(F)F)nc3F)CC1)CC2` (stereo not shown) [Compound 30, N-(2,2-Difluoroethyl)-1'-((3-ethyl-2-oxo-1,2,5,6,7,8-hexahydroquinoline-7-yl)methyl)-2-fluoro-1',2',3',6'-tetrahy dro-[3,4'-bipyridine]-6-carb oxamide], the IC50 is no more than 50 nM.
As for `CCc1cc2c([nH]c1=O)CC(CN1CCN(c3ccc(C(=O)NC)nc3)CC1)CC2` (stereo not shown) [Compound 15, 5-(4-((3-Ethyl-2-oxo-1,2,5,6 ,7,8-hexahydroquinoline-7-yl)methyl)piperazin-1-yl)-N-methylpicolinamide], the IC50 is no more than 50 nM.
The result for `CCc1cc2c([nH]c1=O)CC(CN1CCN(c3ccc(C(=O)NC4CC4)nc3)CC1)CC2` (stereo not shown) [Compound 20, N-Cyclopropyl-5-(4-((3-ethyl-2-oxo-1,2,5,6,7,8-hexahydroquinoline-7-yl)methyl)piperazin-1-yl)picolinamide] reads no more than 50 nM; that for `[2H]C([2H])([2H])NC(=O)c1ccc(C2=CCN(CC3CCc4cc(CC)c(=O)[nH]c4C3)CC2)c(F)n1` (stereo not shown) [Compound 27, 1'-((3-Ethyl-2-oxo-1,2,5,6,7,8-hexahydroquinoline-7-yl)methyl)-2-fluoro-N-(methyl-d3)-1',2',3',6'-tetrahydro-[3,4' -bipyridine]-6-carboxamide], no more than 50 nM; that for `[2H]C([2H])([2H])NC(=O)c1ccc(N2CCN(CC3CCc4cc(CC)c(=O)[nH]c4C3)CC2)c(F)n1` (stereo not shown) [Compound 19, 5-(4-((3-Ethyl-2-oxo-1,2,5,6 ,7,8-hexahydroquinoline-7-yl)methyl)piperazin-1-yl)-6-fl uoro-N-(methyl-d3)picolinamide], no more than 50 nM.
Regarding `CCc1cc2c([nH]c1=O)CC(CN1CC=C(c3ccc(C(=O)NC)nc3F)CC1)CC2` (stereo not shown) [Compound 24, 1'-((3-Ethyl-2-oxo-1,2,5,6,7,8-hexahydroquinoline-7-yl)methyl)-2-fluoro-N-methyl-1',2',3',6'-tetrahydro-[3,4'-bipyridine]-6-carboxamide], the IC50 is no more than 50 nM.
As to `CCc1cc2c([nH]c1=O)CC(CN1CCN(c3ccc(C(=O)NCC(F)F)nc3F)CC1)CC2` (stereo not shown) [Compound 22, N-(2,2-Difluoroethyl)-5-(4-( (3-ethyl-2-oxo-1,2,5,6,7,8-hexahydroquinoline-7-yl)methyl)piperazin-1-yl)-6-fluoro picolinamide], the IC50 was no more than 50 nM.

The record behind these values is EP4768487A1, “FUSED LACTAM RING COMPOUND AND USE THEREOF” (Chengdu Zenitar Biomedical Technology Co., Ltd., priority 2023, dated 2025).
